Results from US7022681B2, “Partial and full agonists of A1 adenosine receptors” (CV Therapeutics, Inc., priority 2002, dated 2006).

Tests used:
awake rats [1] = assay: Heart rate in awake rats (telemetry); assay type: in vivo, rat; settings: dose levels of 1 mg/kg, 2.5 mg/kg, and 5 mg/kg
Method: Heart rate was measured from rats chronically instrumented with telemetry transmitters. For transmitter implantation, a midline laparotomy was performed on anesthetized rats and a transmitter for ECG recording was sutured to the abdominal wall. The two electrocardiographic leads were tunneled through the wall, passed subcutaneously (one to the left shoulder, the other to the right thigh), and secured in place with sutures. Heart rates of awake rats were measured using a Dataquest ART Gold System (Data Sciences International, St. Paul, Minn.). Cardiac electrical activity was recorded for 10-s periods and used to calculate heart rate in beats per minute. After recording of a baseline heart rate, either vehicle (0.9% DMSO in saline, 0.5 ml) or a compound of Formula I was injected into the intraperitoneal cavity of each rat, and heart rate was monitored at intervals for an additional 3 hours.
The effects of a compound of Formula I on heart rate and serum NEFA reduction concentration were determined in separate groups of rats to avoid the effects of animal handling and blood sampling on heart rate. Three days before an experiment, a catheter ([…] outer diameter) was implanted in the left common carotid artery of each rat using aseptic conditions and sterile technique. […] Serum NEFA concentration was determined using an enzymatic colorimetric assay kit (Wako Chemicals, Richmond, Va.).

awake rats [2] = assay: Antilipolytic properties: NEFA concentration in awake rats; assay type: in vivo, rat; settings: oral administration
From the text: • Animals. Male Sprague-Dawley rats (380–420 g) were purchased from Simonsen Laboratories (Gilroy, Calif.). All animals received humane care according to the guidelines set forth in The Principles of Laboratory Animal Care formulated by the National Society for Medical Research and the Guide for the Care and Use of Laboratory Animals prepared by the Institute of Laboratory Animal Resources and published by the National Institute of Health (NIH Publication 86-23, revised 1996). • Isolation of Rat Epididymal Adipocytes. Adipocytes were isolated from the epididymal fat pads of rats as described previously (Rodbell, 1964). Briefly, rats were anesthetized using methoxyfluorane and killed by exsanguination. Epididymal fat tissue was removed and placed into a modified Krebs (KRH) solution containing NaCl (100 mM), KCl (4.7 mM), CaCl2 (2.5 mM), NaHCO3 (3.6 mM), MgSO4 (1.19 mM), KH2PO4 (1.18 mM), dextrose (5 mM), pyruvic acid (5 mM), ascorbic acid (1 mM), and HEPES (5 mM), pH 7.4. Visible blood vessels were dissected and excised, and the adipose tissue was minced. Minced tissue was digested with 25 ml of fresh KRH solution containing type I collagenase (1 mg/ml), fatty-acid free BSA [1% (wt/vol)] and nicotinic acid (2_M, to inhibit lipolysis) for 40 to 60 minutes at 37° C. with continuous gentle shaking. The cell suspension was filtered through a nylon-mesh (210_m) to remove undigested tissue fragments. The cell filtrate was washed three times using KRH solution containing 1% fatty acid-free BSA at 37° C. The final adipocyte suspension was either diluted in fresh KRH solution with 1% fatty acid-free BSA for use in cAMP experiments, or used to prepare membranes for radioligand binding assays. • cAMP Assays in Isolated Rat Adipocytes. Aliquots (100 μl, 45,000–90,000 cells) of the freshly prepared adipocyte cell suspension were placed into wells of 24-well cell culture plates containing 0.4 ml of KRH solution containing fatty acid-free BSA (1%), ascorbic acid (1 mM), rolipram (10 μM), cilostamide (1 μM), adenosine deaminase (2 U/ml), and appropriate A1 adenosine receptor agonist(s). An aliquot of 0.5 ml of KRH solution containing 60 nM isoproterenol was added to each well, and incubations proceeded for 4 min in an orbital shaker bath maintained at 37° C. Assays were terminated by the addition of 200 μl of 300 mM HCl to each well to lyse the cells. The concentration of cAMP in the cell lysate was determined using colorimetric direct cAMP kits (Assay Designs, Inc., Ann Arbor, Mich.). Adipocyte Membrane Preparation and Competition Binding • Assays. Freshly isolated adipocytes were added to a chilled solution containing sucrose (0.25 M), EDTA (1 mM), and Tris-HCl (10 mM, pH 7.4) and homogenized with 10 strokes using a motordriven tissue grinder. The homogenate was cooled on ice and the fat layer was discarded. The homogenate was then centrifuged at 500 g for 10 min at 4° C. The supernatant under the fat layer was removed, resuspended in fresh buffer, and homogenized a second time with six strokes using the tissue grinder. Cell membranes were collected by centrifugation of the homogenate at 15,000 g for 15 min. The final membrane pellet was resuspended in a solution containing sucrose (0.25 M), phenylmethylsulfonyl fluoride (0.1 mM), leupeptin (5 μg/ml), aprotinin ([…]), adenosine deaminase (2 U/ml), and Tris-HCl (10 mM) buffer, pH 7.4. The membrane suspension was frozen and stored in liquid nitrogen. For competition binding assays, membrane suspensions were thawed and incubated for 2 hours at room temperature in Tris-HCl (50 mM) buffer containing ADA (1 U/ml), guanosine 5-(imido)triphosphate ([…]), and [3H]CPX (1–3nM) and progressively higher concentrations of the competing agent. At the end of incubation, free radioligand was separated from membrane-bound radioligand by filtration through GF/C glass fiber filters (Whatman, Maidstone, UK) using a tissue harvester (Brandel, Inc., Gaithersburg, Md.). Radioactivity was quantified by liquid scintillation counting. […]

A1 receptor = A1 receptor (Cavia porcellus, UniProt P47745); settings: chronic administration for 7 days, guinea pigs; cited from earlier work
A1 receptor, sequence (P47745 whole entry): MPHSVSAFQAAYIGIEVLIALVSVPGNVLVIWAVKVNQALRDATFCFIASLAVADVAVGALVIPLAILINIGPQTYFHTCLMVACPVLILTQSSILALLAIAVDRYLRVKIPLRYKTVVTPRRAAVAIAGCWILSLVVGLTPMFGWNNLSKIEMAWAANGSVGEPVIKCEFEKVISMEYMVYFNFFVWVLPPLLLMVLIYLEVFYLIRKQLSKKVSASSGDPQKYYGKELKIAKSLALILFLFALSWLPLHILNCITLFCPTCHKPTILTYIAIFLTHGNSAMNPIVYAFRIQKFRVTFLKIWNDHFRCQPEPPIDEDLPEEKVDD

seizures induced by DMCM = settings: experimental models of epilepsy; cited from earlier work

Q: Which results are given for `O[C@@H]1[C@H](O)[C@@H](C#Cc2ccccc2F)O[C@H]1n1cnc2c(NC3CCCC3)ncnc21` [(4S,2R,3R,5R)-2-[6-(cyclopentylamino)purin-9-yl]-5-{2-[2-fluorophenyl]-ethynyl}oxolane-3,4-diol]?
A: effect on heart rate (awake rats [1]): no effect on heart rate was observed; initial reduction of non-esterified free fatty acid (NEFA) (awake rats [2]; 1 mg/Kg): 40%; time in which plasma levels of NEFA returned to normal (awake rats [2]; 1 mg/Kg): 2 h; time the NEFA reduction was maintained (awake rats [2]; 1 mg/Kg): 1 h; initial reduction of non-esterified free fatty acid (NEFA) (awake rats [2]; 2.5 mg/Kg): 60%; time in which plasma levels of NEFA returned to normal (awake rats [2]; 2.5 mg/Kg): 4 h; time the NEFA reduction was maintained (awake rats [2]; 2.5 mg/Kg): 1.5 h

Q: Which “desensitization in terms of the dromotropic response” value (A1 receptor) does the source give for `C[C@H](Cc1ccccc1)Nc1ncnc2c1ncn2[C@@H]1O[C@H](CO)[C@@H](O)[C@H]1O` [R-PIA, R-N6-phenylisopropyladenosine] here?
A: Its value is “desensitization of the A1 receptor”.

Q: With `Cc1ccccc1CNc1ncnc2c1ncn2[C@@H]1O[C@H](CO)[C@@H](O)[C@H]1O` [metrifudil] as the molecule, how does the “anticonvulsant activity against seizures induced by DMCM” value (seizures induced by DMCM) read?
A: Its value is “potent anticonvulsant”.
